{"source": "patent US6680300B2", "about": "(Board of Regents, The University of Texas System, priority 1998, dated 2004)", "key": {"[1]": {"test_system": "human carcinoma sensitive (KB) cells", "experiment": "MTT cytotoxicity assay, sensitive KB cells", "assay_type": "cell-based", "conditions": "72 hours incubation", "procedure": "(§1) Compounds synthesized using the methods described above were tested using a standard MTT assay (Green et al., 1984) against human carcinoma sensitive (KB) and multi-drug-resistant (KBV1) cells and MCF-7 and MCF-7/VP-16 resistant cells characterized as having the MRP (multi-drug resistant associated protein) phenotype. The use of an MTT assay using these cells is recognized as an accepted assay for anti-tumor activity by those in the field.\n(§2) In vitro drug cytotoxicities against human breast carcinoma wild-type MCF-7 and MRP-resistant MCF-7/VP-16 cells were assessed by using the MTT reduction assay, as previously reported (Green et al., 1984). The MTT dye was obtained from Sigma Chemical Co. (St. Louis, Mo.). Cells were plated in 96-well microassay culture plates (10^4 cells/well) and grown overnight at 37° C. in a 5% CO2 incubator. Drugs were then added to the wells to achieve a final drug concentration ranging from 0.1 to 50 μg/mL. Four wells were used for each concentration. Control wells were prepared by adding appropriate volumes of calcium- and magnesium-free PBS (pH 7.4). Wells containing culture medium without cells were used as blanks. The plates were incubated at 37° C. in a 5% CO2 incubator for 72 hours. Upon completion of the incubation, 20 μL of stock MTT dye solution (5 mg/mL) was added to each well. After a 4-hour incubation, 100 μL of buffer containing 50% N,N-dimethylformamide and 20% SDS was added to solubilize the MTT formazan. Complete solubilization was achieved by placing the plate in a mechanical shaker for 30 minutes at room temperature. The optical density of each well was then measured with a microplate spectrophotometer at a wavelength of 570 nm. The percent cell viability was calculated by the following equation:\n(§3) % cell viability=(OD treated wells/OD control wells)×100\nwhere OD is the mean optical density from four determinations. The percent cell viability values were plotted against the drug concentrations used, and the ID50 was calculated from the curve. Cytotoxicity experiments were repeated at least three times. […]"}, "[2]": {"test_system": "human breast carcinoma wild-type MCF-7 cells", "experiment": "MTT cytotoxicity assay, wild-type MCF-7 cells", "assay_type": "cell-based", "conditions": "72 hours incubation", "procedure": "as §1\n(§4) In vitro drug cytotoxicities against human breast carcinoma wild-type MCF-7 and MRP-resistant MCF-7/VP-16 cells were assessed by using the MTT reduction assay, as previously reported (Green et al., 1984). The MTT dye was obtained from Sigma Chemical Co. (St. Louis, Mo.). Cells were plated in 96-well microassay culture plates (10^4 cells/well) and grown overnight at 37° C. in a 5% CO2 incubator. Drugs were then added to the wells to achieve a final drug concentration ranging from 0.1 to 50 μg/mL. Four wells were used for each concentration. […] The optical density of each well was then measured with a microplate spectrophotometer at a wavelength of 570 nm. The percent cell viability was calculated by the following equation: […]\n(§5) where OD is the mean optical density from four determinations. The percent cell viability values were plotted against the drug concentrations used, and the ID50 was calculated from the curve. […]"}, "[3]": {"test_system": "MRP-resistant MCF-7/VP-16 cells", "experiment": "MTT cytotoxicity assay, MRP-resistant MCF-7/VP-16 cells", "assay_type": "cell-based, human", "procedure": "as §1, §4, §5"}, "[4]": {"test_system": "MCF-7/dox cell line which overexpresses MDR1 gene", "experiment": "MTT cytotoxicity assay, MCF-7/dox cells", "assay_type": "cell-based, human", "conditions": "for RI (resistance index) MCF-7/dox vs MCF-7: MCF-7/dox relative to MCF-7; for ID50 MCF-7/dox: MTT, 72 hours incubation, MCF-7/dox cells", "procedure": "[Worded in the source for another cell line; this cell line is reported under the same test.] as §1, §2, §3\n(§6) where OD is the mean optical density from four determinations. The percent cell viability values were plotted against the drug concentrations used, and the ID50 was calculated from the curve. Cytotoxicity experiments were repeated at least three times.\n(§7) Drug resistance, both de novo and acquired, by human tumors is currently a major factor limiting the effectiveness of chemotherapy. […] Using this system, the inventors evaluate a drug's cytotoxic potential against human tumors and at the same time identify compounds that might have unique activity against MDR tumors (Priebe et al., 1993)."}, "several cell lines": {"test_system": "several cell lines", "experiment": "In vitro potency comparison in several cell lines", "assay_type": "cell-based", "conditions": "in vitro cytotoxicity"}, "[5]": {"test_system": "multi-drug-resistant (KBV1) carcinoma cells overexpressing MDR1 (P-gp)", "experiment": "MTT cytotoxicity assay, multi-drug-resistant KBV1 cells", "assay_type": "cell-based, human", "conditions": "for RI (resistance index) KBV1 vs KB: KBV1 relative to KB; for ID50 KBV1: MTT, 72 hours incubation, KBV1 cells", "procedure": "as §1, §2, §3, §6, §7"}}, "note": "“And” between values parts separate entries of the source, which are not always exact repeats. Equal values may be shown once."}
{"smiles": "COc1cccc2c1C(=O)c1c(O)c3c(c(O)c1C2=O)C[C@@](O)(C(=O)CO)C[C@@H]3O[C@H]1C[C@H]2[C@H](OC3CCCN32)[C@H](C)O1", "note": "(stereo partly shown) [WP836]", "values": [{"measurement": "ID50 KB", "setting": "[1]", "value": "0.65 ± 0.14 ng/mL and 0.5 ± 0.06 ng/mL"}, {"measurement": "ID50 MCF-7", "setting": "[2]", "value": "0.43 ± 0.06", "unit": "ng/mL"}, {"measurement": "RI (resistance index) MCF-7/VP-16 vs MCF-7", "setting": "[3]; MCF-7/VP-16 relative to MCF-7", "value": 1}, {"measurement": "ID50 MCF-7/VP-16", "setting": "[3]; MTT, 72 hours incubation, MCF-7/VP-16 cells", "value": "0.43 ± 0.06", "unit": "ng/mL"}, {"measurement": "RI (resistance index) MCF-7/dox vs MCF-7", "setting": "[4]", "value": 1.56}, {"measurement": "ID50 MCF-7/dox", "setting": "[4]", "value": "0.67 ± 0.15", "unit": "ng/mL"}, {"measurement": "potency relative to daunorubicin analog WP809", "setting": "several cell lines", "value": "several fold"}]}
{"smiles": "COc1cccc2c1C(=O)c1c(O)c3c(c(O)c1C2=O)C[C@@](O)(C(C)=O)C[C@@H]3O[C@H]1C[C@H](N)[C@H](O)[C@H](C)O1", "note": "[DNR, daunorubicin]", "values": [{"measurement": "ID50 KB", "setting": "[1]", "value": "220 ± 10", "unit": "ng/mL"}, {"measurement": "RI (resistance index) KBV1 vs KB", "setting": "[5]", "value": 45}, {"measurement": "ID50 KBV1", "setting": "[5]", "value": "10,000 ± 0 ng/mL"}]}
{"smiles": "COc1cccc2c1C(=O)c1c(O)c3c(c(O)c1C2=O)C[C@@](O)(C(=O)CO)C[C@@H]3O[C@H]1C[C@H](N)[C@H](O)[C@H](C)O1", "note": "[DOX, doxorubicin]", "values": [{"measurement": "ID50 KB", "setting": "[1]", "value": "340 ± 100", "unit": "ng/mL"}, {"measurement": "RI (resistance index) KBV1 vs KB", "setting": "[5]", "value": ">294"}, {"measurement": "ID50 KBV1", "setting": "[5]", "value": ">100,000 ng/mL"}, {"measurement": "ID50 MCF-7", "setting": "[2]", "value": "300 ± 170 ng/mL and 240 ± 50 ng/mL"}, {"measurement": "RI (resistance index) MCF-7/dox vs MCF-7", "setting": "[4]", "value": ">333 and >416"}, {"measurement": "ID50 MCF-7/dox", "setting": "[4]", "value": "100,000 ng/mL and >100,000 ng/mL"}]}
